Measurements published in paper PMC12264554, “Application of preclinical absorption, distribution, metabolism, elimination in vitro techniques for the characterization and compound library optimization of novel antibiotic gallium salophen” (Drug Metabolism and Disposition, 2025).
Each block holds one compound with its values, some of them ahead of it.

Columns and labels:
[1] = Microsomal clearance assay; format: in vitro ADME, rat; settings: 2 μM, rat liver microsomes
Experimental: Library compounds were tested in triplicate at a concentration of 2 μM and incubated in 0.1 M potassium phosphate buffer containing 12 mM MgCl2 and 8 mM NADPH at pH 7.4 with either 0.5 mg/mL of Sprague–Dawley liver microsomes (Invitrogen). Samples were incubated for 0, 3, 7, 12, 20, and 30 minutes. At the designated time point, the incubation reaction was stopped by adding 100 μL of ACN containing 1 μM of either GaSal-4 or GaSal-5 as the internal standards. […] 7-Ethoxycoumarin (Sigma) was used as a positive control in this experiment. Intrinsic clearance (CLint) was calculated using eq. 2:(2) CLint=0.693/InVitroT1/2∗IncubationVolume/mgofmicrosomes∗45mgmicrosomes/gramofliver∗45gramsliver/kgofbodyweight
The average CLint ± SEM was determined for each compound for 2 replicates per time point.

[2] = S9 clearance assay; format: in vitro ADME; settings: Sprague-Dawley, pH 7.4, S9 rat liver fraction
Experimental: Select library compounds were tested in triplicate at a concentration of 2 μM and incubated in 0.1 M potassium phosphate buffer containing 12 mM MgCl2 and 8 mM NADPH at pH 7.4 with 2.5 mg/mL of Sprague–Dawley S9 (Invitrogen). Incubations contained a final concentration of 2.5 mM UDP glucuronic acid, 0.10 mM adenosine 3’-phosphate 5’-phosphosulfate, 0.5 mM acetyl CoA, and 50 μg/mg protein alamethicin. All co-factors were from Sigma. Samples were incubated for 0, 3, 7, 12, 20, and 30 minutes. At the designated time point, the incubation reaction was stopped by adding 100 μL of ACN containing 1 μM of either GaSal-4 or GaSal-5 as the internal standard. […] A hundred microliter of supernatant was taken for LC-MS/MS analysis. 7-Ethoxycoumarin (Sigma) was used as a positive control in this experiment. Clearance was calculated according to eq. 3:(3) CLint=0.693/InVitroT1/2∗IncubationVolume/mgofS9∗165mgS9/gramofliver∗45gramsliver/kgofbodyweight
The average CLint ± SEM was determined for each compound for 3 replicates per time point.

[3] = system: PL proteins; settings: 2012, cited from earlier work; for PL protein bound: ref Pike and Skuterud, 1982, Zhang et al
[4] = Caco-2 permeability screening; format: in vitro ADME; settings: human, Caco-2, pH 7.4, known drug standards
Experimental: (§1) Caco-2 cells were received from American Type Culture Collection and certified mycoplasma free. Cells were seeded on transwell plates (CoStar, growth area 0.33 cm^2/well, polycarbonate membrane, 0.33 μm pore size) between passage 20 and 27 and then analyzed between 21 and 25 days after wells were seeded to ensure enterocyte-like differentiation. Before assessing permeability, cells were washed once with Hank’s Balanced Salt Solution buffer, pH 7.4, and then incubated at 37 °C for 30 minutes. Transepithelial electrical resistance (TEER) was measured after equilibration before the experiment using an epithelial volt-ohmmeter (EVOM, World Precision Instruments), and cells were used if TEER > 250 Ω × cm^2. Cells were dosed to measure permeability from basolateral and apical sides at a concentration of 20 μM of test compound and 50 μM of Lucifer yellow. Lucifer yellow was used as a “zero permeability” marker to monitor the integrity of cell barrier. Samples were taken at 0 and 60 minutes from the donor side, and samples were taken at 30 and 60 minutes from the receiver side; media was replenished after the 30-minute sample was taken from both chambers. A calibration curve was prepared by serial dilution using the dosing solution in a 1:5 dilution. […] Samples were prepared for LC-MS/MS analysis by taking 100 μL of sample, adding 1 μM internal standard (GaSal-4 or GaSal-5), and crashing with 400 μL of methanol. Samples were centrifuged at 3000 rpm at 4 °C for 30 minutes, 200 μL of supernatant was transferred to a new plate, and 100 μL of water was added to each sample. Samples were vortexed and analyzed by LC-MS/MS as described earlier. […] To preliminarily evaluate organic cation transporter 1 (OCT1) or P-glycoprotein (P-gp)-dependent transport, transport studies were conducted with and without a 1 μM “inhibitor cocktail” alongside GaSal. […] The Papp for basolateral to apical, Papp apical to basolateral, and efflux ratio were reported for each compound. In order to calculate Papp, the concentration in the sampled time point was determined from the calibration curve and then converted to μg based on the volume of the chamber (0.2 mL for apical, 1.0 mL for basolateral). […] The calculation of Papp was determined using eq. […] Data are presented as the average ± SEM for each compound analyzed as n = 3 on 2 different days with 2 different cell line passages, for n = 6 total. GaSal is n = 3 on 3 different cell line passages since this was used as a test compound for the inhibition cocktail experiments.

[5] = system: Caco-2 cells; assay: Caco-2 permeability screening; format: in vitro ADME; settings: Caco-2
Experimental: as §1

concentration change over 30 minutes in microsomes [1]: metabolized by the microsomes
half-life at 2 µM ([2]; average ± SEM n = 3): 25.2 ± 7.8 min
CLint scaled at 2 μM ([2]; average ± SEM n = 3, read-out: Predicted CLint (converted)): 190 mL/min/kg
SMILES: CCOc1ccc2ccc(=O)oc2c1 [7-ethoxycoumarin, 7-Ethoxycoumarin, reference compound]

efflux ratio at 60 min, 20 μM ([4]; read-out: Efflux Ratio B to A/ A to B): 1.46
Papp A→B at 60 min, 20 μM ([4]; read-out: Papp Apical to Basolateral): 0.02 ± 0.001 ×10⁻⁶ cm/s
Papp B→A at 60 min, 20 μM ([4]; read-out: Papp Basolateral to Apical): 0.03 ± 0.01 ×10⁻⁶ cm/s
Permeability Ranking [5]: Not Permeable
SMILES: CN(Cc1cnc2nc(N)nc(N)c2n1)c1ccc(C(=O)N[C@@H](CCC(=O)O)C(=O)O)cc1 [Methotrexate, reference compound]
expected protein binding ([3]; control compounds, ref Zhang et al): 50%

SMILES: CN(C)CCC=C1c2ccccc2CCc2ccccc21 [amitriptyline]
PL protein bound [3]: > 90%

SMILES: CN(C)CCCN1c2ccccc2CCc2ccccc21 [imipramine]
PL protein bound [3]: > 90%
